Experimental data as given in ChEMBL document CHEMBL2074174, “Directional trans-epithelial transport of organic anions in porcine LLC-PK1 cells that co-express human OATP1B1 (OATP-C) and MRP2” (Biochem Pharmacol, 2005).

Biological target: Canalicular multispecific organic anion transporter 1/Solute carrier organic anion transporter family member 1B1 (Homo sapiens, UniProt Q92887+Q9Y6L6)
Test: TP_TRANSPORTER: Transepithelial Transport (basal to apical) in OATP1B1/MRP2 double transfected LLC-PK1 cell
Format: functional, cell-based
Conditions: pig

Row | SMILES | Activity
1 | C[C@]12CC[C@H](OS(=O)(=O)O)CC1=CC[C@@H]1[C@@H]2CC[C@]2(C)C(=O)CC[C@@H]12 [PRASTERONE SULFURIC ACID] | substrate [(+)]
2 | C[C@]12CC[C@@H]3c4ccc(O)cc4CC[C@H]3[C@@H]1CC[C@@H]2O[C@@H]1O[C@H](C(=O)O)[C@@H](O)[C@H](O)[C@H]1O [ESTRADIOL 17B GLUCURONIDE] | substrate [(+)]
3 | C[C@]12CC[C@@H]3c4ccc(OS(=O)(=O)O)cc4CC[C@H]3[C@@H]1CCC2=O [ESTRONE SULFURIC ACID] | substrate [(+)]
